Experiment in all cases: solid-phase competition binding assay with biotinylated EGF on coated receptor ECD/Fc
The target of test [1] is T1, ErbB3 (Homo sapiens, UniProt P21860).
T1 construct: ErbB3 ECD/Fc chimera; with EGF (biotinylated)

Test [2] addresses T2, ErbB2 (Homo sapiens, UniProt P04626).
T2 construct: ErbB2 ECD/Fc chimera; with EGF (biotinylated)

The target of test [3] is T3, EGFR (Homo sapiens, UniProt P00533).
T3 construct: human-EGFR ECD/Fc chimera; with EGF (biotinylated)

In general, IC50 refers to the concentration needed to halve the response being measured. Read a low IC50 as greater potency in that assay.

T1 sequence (P21860 20-643 limits assumed): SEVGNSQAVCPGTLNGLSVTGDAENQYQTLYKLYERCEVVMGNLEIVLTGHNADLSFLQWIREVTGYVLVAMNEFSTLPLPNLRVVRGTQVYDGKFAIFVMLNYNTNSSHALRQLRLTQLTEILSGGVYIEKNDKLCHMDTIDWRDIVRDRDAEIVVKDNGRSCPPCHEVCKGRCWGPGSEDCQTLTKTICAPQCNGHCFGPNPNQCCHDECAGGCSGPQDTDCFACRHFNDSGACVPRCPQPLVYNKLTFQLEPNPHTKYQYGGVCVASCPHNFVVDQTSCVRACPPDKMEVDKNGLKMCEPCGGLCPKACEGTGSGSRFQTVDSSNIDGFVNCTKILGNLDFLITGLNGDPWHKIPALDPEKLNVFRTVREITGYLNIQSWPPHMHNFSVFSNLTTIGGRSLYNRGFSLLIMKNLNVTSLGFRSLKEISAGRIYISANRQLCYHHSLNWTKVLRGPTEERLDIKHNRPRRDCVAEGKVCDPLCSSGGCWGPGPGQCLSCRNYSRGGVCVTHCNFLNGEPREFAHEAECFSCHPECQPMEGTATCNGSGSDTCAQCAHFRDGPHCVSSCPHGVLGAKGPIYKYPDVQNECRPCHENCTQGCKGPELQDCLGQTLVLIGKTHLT
T1 sequence (P01133 971-1023 partner): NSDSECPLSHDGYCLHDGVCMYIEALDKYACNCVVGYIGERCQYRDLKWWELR
T3 sequence (P00533 25-645 limits assumed): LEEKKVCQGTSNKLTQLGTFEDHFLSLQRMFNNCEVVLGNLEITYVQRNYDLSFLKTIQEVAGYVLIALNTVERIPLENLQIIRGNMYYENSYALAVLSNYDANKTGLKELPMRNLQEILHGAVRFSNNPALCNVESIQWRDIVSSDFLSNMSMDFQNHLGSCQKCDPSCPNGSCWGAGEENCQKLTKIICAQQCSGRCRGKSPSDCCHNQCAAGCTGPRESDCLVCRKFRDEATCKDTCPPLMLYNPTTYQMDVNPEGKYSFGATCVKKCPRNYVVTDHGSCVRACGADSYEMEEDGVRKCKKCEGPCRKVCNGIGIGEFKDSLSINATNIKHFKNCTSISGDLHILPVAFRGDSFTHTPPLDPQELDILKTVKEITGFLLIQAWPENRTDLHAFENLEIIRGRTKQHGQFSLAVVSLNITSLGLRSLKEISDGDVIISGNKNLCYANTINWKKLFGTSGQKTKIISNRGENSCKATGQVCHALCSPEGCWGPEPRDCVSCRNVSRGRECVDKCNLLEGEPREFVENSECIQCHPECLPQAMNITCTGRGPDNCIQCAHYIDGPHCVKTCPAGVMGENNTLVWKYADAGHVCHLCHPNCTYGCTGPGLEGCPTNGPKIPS
T3 sequence (P01133 971-1023 partner): as the sequence (P01133 971-1023 partner) above
T2 sequence (P04626 23-652): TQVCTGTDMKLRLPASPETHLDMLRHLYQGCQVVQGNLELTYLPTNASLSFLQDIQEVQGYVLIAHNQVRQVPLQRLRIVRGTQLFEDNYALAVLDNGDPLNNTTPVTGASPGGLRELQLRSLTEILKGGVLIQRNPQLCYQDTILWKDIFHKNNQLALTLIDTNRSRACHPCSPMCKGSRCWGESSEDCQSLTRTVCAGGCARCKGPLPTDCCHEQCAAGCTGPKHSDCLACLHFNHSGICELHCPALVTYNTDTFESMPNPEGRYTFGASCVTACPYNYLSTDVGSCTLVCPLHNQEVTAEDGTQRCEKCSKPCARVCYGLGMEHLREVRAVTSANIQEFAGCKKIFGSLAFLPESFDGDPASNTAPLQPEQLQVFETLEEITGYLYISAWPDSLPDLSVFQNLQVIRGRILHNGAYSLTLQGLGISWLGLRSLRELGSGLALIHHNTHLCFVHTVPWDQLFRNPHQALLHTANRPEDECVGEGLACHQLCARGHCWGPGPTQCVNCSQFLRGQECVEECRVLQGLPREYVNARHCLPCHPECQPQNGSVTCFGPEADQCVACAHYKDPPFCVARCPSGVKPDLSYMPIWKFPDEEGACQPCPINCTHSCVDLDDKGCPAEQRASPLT
T2 sequence (P01133 971-1023, further chain): as the sequence (P01133 971-1023 partner) above

As to `CC(C)(O)/C=C/C(=O)[C@](C)(O)[C@H]1[C@H](O)C[C@@]2(C)[C@@H]3CC=C4[C@@H](C[C@H](O)C(=O)C4(C)C)[C@]3(C)C(=O)C[C@]12C` [CuD, cucurbitacin D], the IC50 in test [1] was found to be 0.331 µM; in test [2], 0.0111 µM; in test [3], 0.00433 µM.

These data come from article PMC7041627, “Cucurbitacin D Overcomes Gefitinib Resistance by Blocking EGF Binding to EGFR and Inducing Cell Death in NSCLCs” (Frontiers in Oncology, 2020).
